The values below are quoted from earlier work in US11246476B2, “Method for visualizing tissue with an ICG dye composition during ablation procedures” (CardioFocus, Inc., priority 2014, dated 2022).

The conditions of series [1]: in vivo.
The conditions of series [2]: after injection into the patient's arm (e.g., through an IV).

On to `CC1(C)C(/C=C/C=C/C=C/C=C2\N(CCCCS(=O)(=O)[O-])c3ccc4ccccc4c3C2(C)C)=[N+](CCCCS(=O)(=O)[O-])c2ccc3ccccc3c21.[Na+]` [ICG, Indocyanine green], for which, in series [1], the “route of removal from circulation” value is on record as “removed from circulation exclusively by the liver to bile juice”. For the same molecule, the “time to travel through the bloodstream to the target tissue” value in series [2] is recorded as “less than 1 minute”. In the series on plasma proteins, the “binding to plasma proteins” value is recorded as “binds tightly to plasma proteins”.
